Data taken from US20220348590A1, “CYCLOOXYGENASE-2 INHIBITORS AND USES THEREOF” (The Board Institute, Inc., priority 2019, published 2022).
Like-named read-outs stand apart in the source and are kept apart here.

Target: T1, human recombinant COX2 (hCOX2) (UniProt P35354)
T1 sequence (P35354 1-604): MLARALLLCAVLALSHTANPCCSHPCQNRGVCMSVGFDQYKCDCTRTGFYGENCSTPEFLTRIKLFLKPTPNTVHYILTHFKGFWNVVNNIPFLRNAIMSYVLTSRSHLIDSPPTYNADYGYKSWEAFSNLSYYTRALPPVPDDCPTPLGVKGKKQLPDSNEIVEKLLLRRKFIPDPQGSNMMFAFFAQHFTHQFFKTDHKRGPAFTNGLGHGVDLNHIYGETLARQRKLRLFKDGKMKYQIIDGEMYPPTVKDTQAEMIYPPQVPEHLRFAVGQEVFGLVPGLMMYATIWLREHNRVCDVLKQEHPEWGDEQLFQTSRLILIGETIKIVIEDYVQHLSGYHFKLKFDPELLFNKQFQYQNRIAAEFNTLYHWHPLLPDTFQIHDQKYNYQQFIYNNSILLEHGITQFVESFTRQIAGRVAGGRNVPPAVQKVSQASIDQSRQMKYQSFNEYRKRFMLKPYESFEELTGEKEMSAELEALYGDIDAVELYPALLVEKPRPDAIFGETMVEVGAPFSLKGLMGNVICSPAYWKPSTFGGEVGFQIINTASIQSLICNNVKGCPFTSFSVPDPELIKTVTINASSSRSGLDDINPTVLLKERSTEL
Experiment: LCMS-based COX2 enzymatic inhibition assay (PGE2 quantification)
Type: biochemical
Design: COX2 2 minutes pge2/pge2d4 area ratio Avg; other: 2 minutes; readout pge2/pge2d4 area ratio; average; COX2 2 minutes pge2/pge2d4 area ratio Avg; LLE; average LLE; COX2 2 minutes pge2 area (counts) Avg; readout pge2 area (counts); other: 2 min; "ovine COX2 (oCOX2), human recombinant COX2 (hCOX2)"
Conditions: for COX2 2 minutes pge2/pge2d4 area ratio Avg. LLE / COX2 2 minutes pge2 area (counts) Avg. LLE / COX2 10 minutes pge2 area (counts) Avg. LLE: average LLE; for IC50: average
In short: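 Ovine COX-1 (0.1 μg) or human recombinant COX2 (0.2 μg) in 100 mM Tris.HCl pH 8.0 with hematin and epinephrine, preincubated with inhibitor 10 min at 37 °C. Reaction with 5 μM arachidonic acid stopped after 2 min with HCl; PGE2 quantified by LC-MS-MS. IC50 from 12 concentrations in triplicate.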

[1] = 2 minutes, readout pge2/pge2d4 area ratio
[2] = 2 minutes, readout pge2 area (counts)
[3] = 2 minutes, readout pge2 area (counts), read-out: COX2 2 minutes pge2 area (counts) Avg. IC50
[4] = read-out: COX2 2 minutes pge2/pge2d4 area ratio Avg. IC50 (microM), 2 minutes, readout pge2/pge2d4 area ratio
[5] = 2 minutes, readout pge2/pge2d4 area ratio, read-out: COX2 2 minutes pge2/pge2d4 area ratio Avg. IC50
[6] = 10 minutes, readout pge2 area (counts)
[7] = 10 minutes, readout pge2 area (counts), read-out: COX2 10 minutes pge2 area (counts) Avg. IC50

COX2 2 minutes pge2/pge2d4 area ratio Avg. LLE [1] | COX2 2 minutes pge2 area (counts) Avg. LLE [2] | IC50 [3] [µM] | IC50 [5] [µM] | Structure (SMILES) | IC50 [4] [µM] | COX2 10 minutes pge2 area (counts) Avg. LLE [6] | IC50 [7] [µM]
5.153 | 5.323 | 0.195 | 0.304 | CS(=O)(=O)c1ccc(-c2cncc(OCc3ccns3)n2)cc1 [Compound 153] | – | – | –
3.47 | 3.565 | 1.79 | 2.04 | CS(=O)(=O)c1ccc(-c2cncc(SCc3cnco3)n2)cc1 [Compound 226] | – | – | –
6.121 | 6.077 | 0.169 | 0.144 | CS(=O)(=O)c1ccc(-c2cncc(NCc3cccs3)n2)nc1 [Compound 127] | – | – | –
4.7843 | 4.685 | 0.638 | 0.508 | CS(=O)(=O)c1ccc(-c2cccc(NCc3ccno3)n2)cc1 [Compound 175] | – | – | –
4.414 | 4.524 | 0.602 | 0.751 | CS(=O)(=O)c1ccc(-c2cncc(NC(=O)c3cccs3)n2)cc1 [Compound 192] | – | – | –
2.607 | 2.538 | 1.04 | 0.883 | CS(=O)(=O)c1ccc(-c2cccc(Nc3ccccc3)n2)cc1 [Compound 194] | – | – | –
4.528 | 4.5985 | 1.8 | 2.12 | COc1ncc(NCc2ccccn2)nc1-c1ccc(S(C)(=O)=O)cc1 [Compound 228] | – | – | –
4.315 | 4.316 | 0.616 | 0.627 | CS(=O)(=O)c1ccc(-c2cncc(SC[C@@H]3CCCO3)n2)cc1 (single isomer, unassigned) [Compound 186] | – | – | –
3.328 | 3.249 | 2.4 | 2 | CS(=O)(=O)c1ccc(-c2cncc(CCc3cccs3)n2)cc1 [Compound 225] | – | – | –
5.678 | 5.655 | 0.596 | 0.566 | COc1ncc(NCc2ccno2)nc1-c1ccc(S(C)(=O)=O)cc1 [Compound 183] | – | – | –
2.63 | 2.705 | 4.13 | 4.62 | CS(=O)(=O)c1ccc(-c2cccc(NCc3ccn[nH]3)n2)cc1 [Compound 264] | – | – | –
3.208 | 3.204 | 0.327 | 0.332 | COc1nc(NCc2cccs2)cc(-c2ccc(S(C)(=O)=O)cc2)n1 [Compound 156] | – | 4.189 | 0.0355
4.216 | 4.434 | 0.804 | 1.15 | CS(=O)(=O)c1ccc(-c2cncc(NCc3nccs3)n2)cc1 [Compound 203] | – | – | –
4.977 | 4.936 | 0.215 | 0.197 | CS(=O)(=O)c1ccc(-c2cncc(NCc3cccs3)n2)c(O)c1 [Compound 137] | – | – | –
4.306 | 4.2875 | 3.41 | 3.27 | CS(=O)(=O)c1ccc(-c2cncc(NCc3ncco3)n2)cc1 [Compound 246] | – | – | –
4.901 | 4.97 | 0.0741 | 0.0911 | CS(=O)(=O)c1ccc(-c2cncc(NCc3ccsc3)n2)cc1 [Compound 104] | – | – | –
3.137 | 3.14 | 2.42 | 2.45 | CS(=O)(=O)c1ccc(-c2cc(OCc3cccs3)cnn2)cc1 [Compound 234] | – | – | –
5.555 | 5.576 | 0.211 | 0.221 | CS(=O)(=O)c1ccc(-c2cncc(NCc3ccns3)n2)cc1 [Compound 142] | – | – | –
4.828 | 4.821 | 1.84 | 1.94 | CS(=O)(=O)c1ccc(-c2cncc(NC[C@@H]3CCCO3)n2)cc1 [Compound 224] | – | – | –

More lines, now with the values behind:

Structure (SMILES) | COX2 2 minutes pge2/pge2d4 area ratio Avg. LLE [1] | COX2 2 minutes pge2 area (counts) Avg. LLE [2] | IC50 [3] [µM] | IC50 [5] [µM] | IC50 [4] [µM] | COX2 10 minutes pge2 area (counts) Avg. LLE [6] | IC50 [7] [µM]
Cc1coc(C(=O)Nc2cccc(-c3ccc(S(C)(=O)=O)cc3)n2)c1 [Compound 276] | 2.554 | 2.659 | 4.08 | – | 5.2 | – | –
CS(=O)(=O)c1ccc(-c2cccc(C3CC3c3ccoc3)n2)cc1 (single isomer, unassigned) [Compound 115, 2-[2-(furan-3-yl)cyclopropyl]-6-(4-methanesulfonylphenyl)pyridine] | 2.867 | 2.982 | 0.0632 | 0.107 | – | – | –
CS(=O)(=O)c1ccc(-c2cnnc(OCc3cccs3)c2)cc1 [Compound 321] | – | – | – | – | 5.2 | – | –
CS(=O)(=O)c1ccc(-c2cncc(OC[C@@H]3CCCO3)n2)cc1 [Compound 275] | 4.054 | 4.054 | – | – | 5.2 | – | –
CS(=O)(=O)c1ccc(-n2ccc3ccc(Nc4cccnc4)nc32)cc1 [Compound 238] | – | – | 3.28 | 2.66 | – | – | –
CN1CC[C@H](CNc2cncc(-c3ccc(S(C)(=O)=O)cc3)n2)C1 [Compound 307] | – | – | – | – | 5.2 | – | –
COc1cnc(-c2ccc(S(C)(=O)=O)cc2)nc1OCc1cccs1 [Compound 123] | 3.569 | 3.5904 | 0.121 | 0.131 | – | – | –
CS(=O)(=O)c1ccc(-c2cccc([C@H](O)Cc3cccs3)n2)cc1 [Compound 284] | 2.424 | 2.424 | – | – | 5.2 | – | –
CS(=O)(=O)c1ccc(-c2nc(OCc3cccs3)ccc2F)cc1 [Compound 101] | 3.357 | 3.332 | 0.0772 | 0.0867 | – | – | –
CS(=O)(=O)c1ccc(-n2cnc3ccc(NCc4cccs4)nc32)cc1 [Compound 184] | – | – | 0.457 | 0.57 | – | – | –
COc1cncc(-c2ccc(S(C)(=O)=O)cc2)n1 [Compound 299] | – | – | – | – | 5.2 | 5.551 | 0.489
CS(=O)(=O)c1ccc(-c2cccc(Oc3ccccc3)n2)cc1 [Compound 70] | – | – | 0.0465 | 0.0406 | – | – | –
CS(=O)(=O)c1ccc(-c2ccc3ncn(Cc4cccs4)c3n2)cc1 [Compound 155] | 2.321 | 2.324 | 0.317 | 0.32 | – | – | –
CSc1ccc(-c2cccc(NCc3ccco3)n2)cc1 [Compound 282] | 1.004 | 1.004 | – | – | 5.2 | – | –
CS(=O)(=O)c1ccc(-c2cc(OCc3cccs3)ccn2)cc1 [Compound 315] | – | – | – | – | 5.2 | – | –
CS(=O)(=O)c1ccc(-c2ccc3ccn(-c4ccccc4)c3n2)cc1 [Compound 146] | 2.102 | 2.132 | 0.201 | 0.248 | – | – | –
CS(=O)(=O)c1ccc(-n2ccc3ccc([C@@H](O)c4cccs4)nc32)cc1 (single isomer, unassigned) [Compound 209] | – | – | 1.44 | 1.34 | – | – | –
CS(=O)(=O)c1ccc(-c2cncc(OCCc3cccs3)n2)cc1 [Compound 312] | – | 2.744 | – | – | 5.2 | – | –
CS(=O)(=O)c1ccc(-c2cc(OCc3cccs3)ncn2)cc1 [Compound 318] | – | – | – | – | 5.2 | – | –
CS(=O)(=O)c1ccc(-c2cc3c(cn2)cnn3Cc2cccs2)cc1 [Compound 301] | – | – | – | – | 5.2 | – | –
CS(=O)(=O)c1ccc(-c2cccc(C[C@@H](O)c3cccs3)n2)cc1 [Compound 292] | 2.424 | – | – | 5.2 | – | – | –
